Peptide text beside a SMILES is read from it.

Series [1] has as its system Hep G2 cells. The series can be described thus: In vitro cytotoxicity assay (EZ-Cytox). It counts as cell-based. The settings on record: Hep G2, 48 h; for cell viability at 500 µM / cell viability at 500 µM in 3% DMSO solution: relative to untreated group; for cell viability at 500 µM: n = 5-6, mean ± S.D.; for cell viability at 500 µM in 3% DMSO solution: n = 6. As for the experimental part: The cytotoxicity of (Ac)FRRF, de-Boc-DTX, (Ac)FRRF-DTX NPs, PTXm and PTX were evaluated using the EZ-Cytox assay on Hep G2 cell. Hep G2 was cultured in a 96-well plate at concentrations of 5.0 × 10^3 cells/well and 1.0 × 10^4 cells/well, respectively, under conditions of 37℃ and 5% CO2 for 1 h. Subsequently, cells were cultured for 48 h with concentrations ranging from 0.1 to 500 µM of each drug. Cell viability (n = 5 − 6) was measured at 450 and 600 nm absorbance using the EZ-Cytox cell viability assay kit (Daeil Lab Service, Republic of Korea) and a microplate reader (SPECTROstar Nano spectrophotometer, BMG Labtech, Germany). Cell viability was calculated by comparing the absorbance values of the measured samples with those of the control group. Additionally, to more accurately confirm the cytotoxicity of DTX and PTX with low solubility in aqueous media for Hep G2 cell, both of drug were dissolved in a 3% DMSO solution and cultured for 48 h at concentrations ranging from 0.1 to 500 µM. Cell viability was determined using the same method.

Series [2] concerns microtubules in Hep G2 cells. The series can be described thus: In vitro microtubule staining (BioTracker 488 Green Microtubule Cytoskeleton Dye). It counts as cell-based. The settings on record: Hep G2, 100 µM, 24 h, versus well-organized control. The protocol: To assess the cell death induced by PTX, PTXm, and (Ac)FRRF-DTX NPs in Hep G2 cells, an evaluation was conducted using the nucleic green reagent, and the results were visualized through imaging. Hep G2 cells cultured in high-glucose DMEM medium, maintain in a sample chamber with appropriate humidity, and kept at 37℃ with 5% CO2. The cells were cultured in 35 mm fluorescent cell culture dishes (SPL Life Science, Republic of Korea) at a concentration of 4 × 10^4 for 3 h. Subsequently, DTX, PTX, and (Ac)FRRF-DTX NPs were all treated at a concentration of 100 µM (in DMSO 2%) for 24 h. After sample treatment, cells were washed five times with DPBS solution, and in a light-protected environment, the medium was replaced with a mixture of microtubule reagent (Bio Tracker™ 488 Green Microtubule Cytoskeleton Dye, Sigma-Aldrich, MO, USA) in fresh medium at RT for 30 min. Following this, the medium was replaced with new DMEM containing 10% FBS, and images were captured using ECLIPSE Ti2 Series (Nikon, Japan) with a FITC filter and quantified using ImageJ (U.S. National Institutes of Health).

A short description of series [3]: Morphology / nanoparticle formation by TEM and SEM. The series is classed as physicochemical.
Series [4] in a line: Solubility assessment. The conditions noted are these: for appearance of solution in 3% DMSO: 0.3 mg/mL in water (DW) with 3% DMSO; for appearance of solution in 3% DMSO / appearance of solution in 10% DMSO: visual images; for appearance of solution in 10% DMSO: 0.3 mg/mL in water with 10% DMSO. The protocol:
The images aimed to observe how well these compounds dissolved in the solution. Additionally, an experiment was carried out to precisely determine the aqueous solubility values of (Ac)FRRF-DTX nanoparticles. […] […] Moreover, complementary experiments were performed to obtain accurate quantitative solubility values for (Ac)FRRF-DTX NPs.

For series [5] the following is noted: mouse, in vivo.
Series [6] in a line: In vivo blood toxicity assessment (hematology). The conditions noted are these: normal mice, i.v.; PTX 1.5 mg/kg, NPs 3 mg/kg; blood after 7 days, n = 5. The protocol: Hematological analysis of red blood cell (RBC) and white blood cell (WBC) parameters in mice treated with (Ac)FRRF-DTX was performed through clinical pathological examinations. Normal saline (control group), de-Boc-DTX (1.5 mg/kg), PTX (1.5 mg/kg), and (Ac)FRRF-DTX NPs (3 mg/kg) were dissolved in 200 µL of normal saline and administered daily via tail vein. After 7 days, blood was drawn from the mice’s heart and collected in tubes containing EDTA to prevent coagulation. Subsequently, whole blood samples were stored for analysis. Level of RBC-related parameters (RBC, HGB, HCT, MCV, MHC, MCHC) and WBC-related parameters (WBC, PLT, NEU, LYM, MONO, EOS) were measured using a hematology analyzer (Sysmex XN series, Sysmex, Japan) (n = 5).

Series [7] has as its system Hep G2 tumors. The series can be described thus: In vivo antitumor test (Hep G2 xenograft). The arrangement: species or system BALB/c nude mice. The conditions noted are these: for average tumor weight after 17 days / tumor size after 17 days: i.v. at 3 day intervals, PTX, de-Boc-DTX 5 mg/kg, NPs 10 mg/kg; for average tumor weight after 17 days: control 595.28 ± 282.98; for tumor size after 17 days: control 2161.12 ± 946.71; for TUNEL staining fluorescence intensity of tumor tissue: tumors after 17 days, ImageJ, relative to control group, n = 3. As for the experimental part:
All animal experiments were conducted in accordance with the standard regulations of the Konkuk University Animal Experimentation Ethics Committee (Ref: no. KU220748-1). Hep G2 cells at a concentration of 1.0 × 10^7 cells/100 µL were subcutaneously inoculated into the dorsal region at 6-week-old male BALB/c nude mice (Orient Bio, Seongnam, Republic of Korea). After […], when the tumor volume reached approximately 50 − 100 mm^3 (calculated as the maximum diameter × minimum diameter^2 × 0.52), the mice were divided into four groups. Mice with tumors were intravenously administered saline, de-Boc-DTX (5 mg/kg), PTX (5 mg/kg), or (Ac)FRRF-DTX NPs (10 mg/kg; based on 5 mg/kg of de-Boc-DTX) at 3 days intervals for a total of 17 days. The body weight and tumor volume of the treated mice were measured every other day using a digital caliper (ASIMETO, Mooresville, NC, USA). After 17 days of treatment, tumors were fixed with diluted 10% neutral pH formalin (HuBen Tech, Republic of Korea). Tumor tissues were stained with TUNEL, Ki-67, and H&E. Sections of tumor tissues stained with Ki-67 and H&E were observed using the OS-33DPM multimedia video microscope (OSUN HITECH, Republic of Korea). Additionally, tumor tissues stained with TUNEL were sliced for histological observation using an ECLIPSE Ti2 inverted microscope (Nikon, Japan), and FITC fluorescence intensity was quantified using ImageJ (U.S. National Institutes of Health) (n = 3).

The target of series [8] is T1, Cathepsin B from bovine spleen (Bos taurus, UniProt P07688).
T1 construct: Cathepsin B from bovine spleen; purchased Sigma-Aldrich; host or cells: bovine spleen (tissue-derived enzyme)
Nature of the series: Cathepsin B cleavage assay (RP-HPLC, LC-MS). The series is classed as in vitro ADME. The conditions noted are these: 50 µM, 25 mM MES buffer, 37℃, RP-HPLC 245 nm. The source says: Antibiotic antimycotic solution (100X), Bio TrackerTM 488 Green Microtubule Cytoskeleton Dye, Cathepsin B from bovine spleen, Dimethyl sulfoxide (DMSO), Dulbecco’s modified Eagle’s medium (DMEM), 1-ethyl-3-(3-dimethylaminopropyl) carbodiimide (EDCI), dichloromethane (DCM), ether, phosphate-buffered saline (PBS), rhodamine B isothiocyanate (RITC), 2-(4-amidi-nophenyl)-6-indolecarbamidine dihydrochloride (DAPI), Tetramethylsilane (TMS), Dimethyl sulfoxide-d6 (DMSO-d6) were purchased from Sigma-Aldrich (St. Louis, MO, USA). Paraformaldehyde solution 4% in PBS (PFA), PierceTM BCA Protein Assay Kit were obtained from Thermo Fisher Scientific (Waltham, MA, USA). EZ-Cytox kit was purchased from DoGenBio (Seoul, Republic of Korea). Fetal bovine serum (FBS), 0.5% Trypsin-EDTA (10X) were obtained from Gibico (Waltham, MA, USA). Neutral buffered formalin (10%) was purchased from HuBenTech (Damyang, Republic of Korea).
The cathepsin B-specific cleavage of (Ac)FRRF-DTX was analyzed using reverse-phase high-performance liquid chromatography (RP-HPLC), and the molecular weight of PTXm was determined by liquid chromatography-mass spectrometry (LC-MS). […] The cleavage profile of (Ac)FRRF-DTX NPs was analyzed at 245 nm using reversed-phase high-performance liquid chromatography (RP-HPLC) under solvent gradient conditions (from 90:10 H2O/acetonitrile to 10:90 H2O/acetonitrile over 40 min). […]

The term cell viability denotes a per cent measure of how many cells are alive, often set against a control. In general, IC50 refers to the concentration that inhibits the measured activity by half. Read a high IC50 as lower potency. `CC(=O)O[C@@]12CO[C@@H]1C[C@H](O)[C@@]1(C)C(=O)[C@H](O)C3=C(C)[C@@H](OC(=O)[C@H](O)[C@@H](NC(=O)[C@@H](N)Cc4ccccc4)c4ccccc4)C[C@@](O)([C@@H](OC(=O)c4ccccc4)[C@H]21)C3(C)C` [PTXm]: the “cell viability at 500 µM” value in series [1] (without DMSO) turned out to be 40.9 ± 10.9%. This molecule displayed an IC50 in series [1] (tested 0.1-500 µM, without DMSO) of 214 µM. In series [2], the “appearance of microtubule structures” value is “indistinct”.
For the molecule `CC(=O)N[C@@H](Cc1ccccc1)C(=O)N[C@@H](CCCNC(=N)N)C(=O)N[C@@H](CCCNC(=N)N)C(=O)N[C@@H](Cc1ccccc1)C(=O)O` [(Ac)FRRF, acetylated Phe-Arg-Arg-Phe peptide] (Ac-FRRF-OH), in series [3], the “morphology / nanoparticle formation” value is “absence of nanoparticle formation”. In series [1] (without DMSO), the “cell viability at 500 µM” value was 84.1 ± 6.6%.
`CC(=O)O[C@@]12CO[C@@H]1C[C@H](O)[C@@]1(C)C(=O)[C@H](O)C3=C(C)[C@@H](OC(=O)[C@H](O)[C@@H](NC(=O)OC(C)(C)C)c4ccccc4)C[C@@](O)([C@@H](OC(=O)c4ccccc4)[C@H]21)C3(C)C` [DTX, Docetaxel]: the “cell viability at 500 µM in 3% DMSO solution” value in series [1] stood at 24.9 ± 4.6%. Further, in series [1] (without DMSO), the “cell viability at 500 µM” value is given as 57.9 ± 8.9%. Moreover, in series [4], the “appearance of solution in 3% DMSO” value was “opaque or precipitated” and the “appearance of solution in 10% DMSO” value is on record as “clear”.
Take `CC(=O)O[C@H]1C(=O)[C@@]2(C)[C@H]([C@H](OC(=O)c3ccccc3)[C@]3(O)C[C@H](OC(=O)[C@H](O)[C@@H](NC(=O)c4ccccc4)c4ccccc4)C(C)=C1C3(C)C)[C@]1(OC(C)=O)CO[C@@H]1C[C@@H]2O` [PTX, paclitaxel]: the “histological toxicity in major organs (heart, liver, spleen, lungs, kidney)” value in series [5] is on record as “no significant toxicity”. Besides, the “white blood cell parameters (NEU, LYM, EOS concentrations)” value in series [6] was “alterations in NEU, LYM and EOS concentrations”. Further, the “cell viability at 500 µM in 3% DMSO solution” value in series [1] is given as 27.4 ± 4.5%. Also, the “cell viability at 500 µM” value in series [1] (without DMSO) came out at 55.5 ± 4.9%. Moreover, in series [4], the “appearance of solution in 3% DMSO” value is “opaque or precipitated” and the “appearance of solution in 10% DMSO” value is recorded as “clear”. Besides, in series [2], the “appearance of microtubule structures” value was “indistinct”. Further, the body weight change result in series [7] (17 days treatment, n = 5-7) is given as “no significant changes in body weight”. For the same molecule, in series [7] (n = 5-7), the “average tumor weight after 17 days” value is 293.97 ± 164.22 mg and the “tumor size after 17 days” value was 1029.79 ± 752.19 mm^3. Also, the “TUNEL staining fluorescence intensity of tumor tissue” value in series [7] stood at 183.71 ± 2.32%.
Take `CC(=O)O[C@@]12CO[C@@H]1C[C@H](O)[C@@]1(C)C(=O)[C@H](O)C3=C(C)[C@@H](OC(=O)[C@H](O)[C@@H](N)c4ccccc4)C[C@@](O)([C@@H](OC(=O)c4ccccc4)[C@H]21)C3(C)C` [de-Boc-DTX]: the “histological toxicity in major organs (heart, liver, spleen, lungs, kidney)” value in series [5] was “no significant toxicity”. Moreover, the “morphology / nanoparticle formation” value in series [3] is given as “absence of nanoparticle formation”. Also, in series [1] (without DMSO), the “cell viability at 500 µM” value worked out at 75.3 ± 5.4%. Also, in series [7] (n = 5-7), the “average tumor weight after 17 days” value stood at 265.94 ± 298.69 mg and the “tumor size after 17 days” value came to 1262.19 ± 1209.27 mm^3. Also, the “TUNEL staining fluorescence intensity of tumor tissue” value in series [7] worked out at 196.50 ± 4.25%.
For `CC(=O)N[C@@H](Cc1ccccc1)C(=O)N[C@@H](CCCNC(=N)N)C(=O)N[C@@H](CCCNC(=N)N)C(=O)N[C@@H](Cc1ccccc1)C(=O)N[C@@H](c1ccccc1)[C@@H](O)C(=O)O[C@H]1C[C@@]2(O)[C@@H](OC(=O)c3ccccc3)[C@@H]3[C@]4(OC(C)=O)CO[C@@H]4C[C@H](O)[C@@]3(C)C(=O)[C@H](O)C(=C1C)C2(C)C` [(Ac)FRRF-DTX, Acetylated Phenylalanine-Arginine-Arginine-Phenylalanine Docetaxel], in series [8] (0-72 h, no cathepsin B), the “change of (Ac)FRRF-DTX in the absence of cathepsin B” value is reported as “remained unchanged”. Besides, in series [8] (cathepsin B 50 µg/mL, 48 h), the “nanoconversion of (Ac)FRRF-DTX to PTXm at 48 h” value was “complete nanoconversion”. The solubility in water in series [4] (water without DMSO) came to 1.3 mg/20 µL.

Values taken from paper PMC12033163, “Tumor-specific biochemical nanoconversion of self-assembled peptide-conjugated paclitaxel-docetaxel-based nanoparticles” (Nano Convergence, 2025).
